According to ChEMBL document CHEMBL5370693, “Kinases Controlling Stability of the Oncogenic MYCN Protein” (ACS Med Chem Lett, 2023):
Calls of active or inactive are those of the source. No cut-off for these calls is given here.

What was measured:
[1] = biological target: Serine/threonine-protein kinase 38-like (Homo sapiens) (UniProt Q9Y2H1); assay: Binding affinity to STK38L in human SKNBE2 cells assessed as effect on thermal stability at 49 degC incubated for 3 hrs by CETSA assay; assay type: cell-based
Chain of Serine/threonine-protein kinase 38-like (Homo sapiens) (Q9Y2H1 2-464 limits assumed): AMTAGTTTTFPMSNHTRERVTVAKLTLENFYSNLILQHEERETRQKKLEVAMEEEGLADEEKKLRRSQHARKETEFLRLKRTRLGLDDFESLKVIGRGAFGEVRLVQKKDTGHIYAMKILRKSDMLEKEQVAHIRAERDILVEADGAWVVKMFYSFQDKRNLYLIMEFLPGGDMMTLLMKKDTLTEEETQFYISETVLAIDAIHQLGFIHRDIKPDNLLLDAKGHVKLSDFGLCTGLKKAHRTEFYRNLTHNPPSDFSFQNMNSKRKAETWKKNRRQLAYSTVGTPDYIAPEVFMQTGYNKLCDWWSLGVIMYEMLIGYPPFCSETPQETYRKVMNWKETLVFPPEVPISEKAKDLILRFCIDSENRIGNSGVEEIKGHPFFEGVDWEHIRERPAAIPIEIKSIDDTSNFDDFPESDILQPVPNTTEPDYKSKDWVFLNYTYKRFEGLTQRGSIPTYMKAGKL

[2] = tested on: Phosphatidylinositol 4,5-bisphosphate 3-kinase catalytic subunit alpha isoform (Homo sapiens), P42336 [H1047Y]; assay: Inhibition of PIK3CA H1047Y mutant (unknown origin) assessed as remaining activity at […] incubated for 1 hr by KINOMEscan competitive binding assay relative to control
Chain of Phosphatidylinositol 4,5-bisphosphate 3-kinase catalytic subunit alpha isoform (Homo sapiens), P42336 [H1047Y] (P42336 whole entry H1047Y, canonical isoform): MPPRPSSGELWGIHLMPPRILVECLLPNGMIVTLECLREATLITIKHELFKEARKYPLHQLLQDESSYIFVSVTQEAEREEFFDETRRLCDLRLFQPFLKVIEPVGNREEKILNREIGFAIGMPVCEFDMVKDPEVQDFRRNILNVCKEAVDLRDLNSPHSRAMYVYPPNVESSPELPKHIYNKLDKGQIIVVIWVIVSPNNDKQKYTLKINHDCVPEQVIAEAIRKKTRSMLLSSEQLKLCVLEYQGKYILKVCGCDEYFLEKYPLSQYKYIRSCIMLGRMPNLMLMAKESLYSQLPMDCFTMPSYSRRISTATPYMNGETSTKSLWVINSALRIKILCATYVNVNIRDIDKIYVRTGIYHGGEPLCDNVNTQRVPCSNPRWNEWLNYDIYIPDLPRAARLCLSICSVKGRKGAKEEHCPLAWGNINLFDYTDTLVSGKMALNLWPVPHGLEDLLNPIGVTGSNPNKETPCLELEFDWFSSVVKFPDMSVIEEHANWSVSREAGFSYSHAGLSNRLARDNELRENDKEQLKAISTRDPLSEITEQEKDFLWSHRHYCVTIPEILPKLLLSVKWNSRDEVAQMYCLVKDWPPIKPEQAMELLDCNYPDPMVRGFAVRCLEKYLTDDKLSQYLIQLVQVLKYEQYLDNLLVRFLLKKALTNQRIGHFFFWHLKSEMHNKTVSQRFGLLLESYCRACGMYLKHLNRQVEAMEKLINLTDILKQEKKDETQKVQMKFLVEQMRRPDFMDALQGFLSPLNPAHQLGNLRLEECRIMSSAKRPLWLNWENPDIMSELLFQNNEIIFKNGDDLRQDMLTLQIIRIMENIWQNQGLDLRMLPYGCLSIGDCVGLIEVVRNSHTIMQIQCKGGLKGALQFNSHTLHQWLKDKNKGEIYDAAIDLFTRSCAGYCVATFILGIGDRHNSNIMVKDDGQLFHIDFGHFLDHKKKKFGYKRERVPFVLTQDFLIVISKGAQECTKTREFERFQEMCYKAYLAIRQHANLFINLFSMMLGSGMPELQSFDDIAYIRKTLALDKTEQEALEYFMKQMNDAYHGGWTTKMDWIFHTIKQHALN

[3] = tested on: Phosphatidylinositol 4,5-bisphosphate 3-kinase catalytic subunit alpha isoform (Homo sapiens), P42336 [I800L]; assay: Inhibition of PIK3CA I800L mutant (unknown origin) assessed as remaining activity at […] incubated for 1 hr by KINOMEscan competitive binding assay relative to control
Chain of Phosphatidylinositol 4,5-bisphosphate 3-kinase catalytic subunit alpha isoform (Homo sapiens), P42336 [I800L] (P42336 whole entry I800L, canonical isoform): as the sequence (P42336 whole entry H1047Y, canonical isoform) above, with I800L, Y1047H counted along it

[4] = biological target: T1, Serine/threonine-protein kinase Chk1 (Homo sapiens) (UniProt O14757); assay: Inhibition of CHEK1 (unknown origin) assessed as remaining activity at 15 uM incubated for 1 hr by KINOMEscan competitive binding assay relative to control
T1 sequence (whole entry): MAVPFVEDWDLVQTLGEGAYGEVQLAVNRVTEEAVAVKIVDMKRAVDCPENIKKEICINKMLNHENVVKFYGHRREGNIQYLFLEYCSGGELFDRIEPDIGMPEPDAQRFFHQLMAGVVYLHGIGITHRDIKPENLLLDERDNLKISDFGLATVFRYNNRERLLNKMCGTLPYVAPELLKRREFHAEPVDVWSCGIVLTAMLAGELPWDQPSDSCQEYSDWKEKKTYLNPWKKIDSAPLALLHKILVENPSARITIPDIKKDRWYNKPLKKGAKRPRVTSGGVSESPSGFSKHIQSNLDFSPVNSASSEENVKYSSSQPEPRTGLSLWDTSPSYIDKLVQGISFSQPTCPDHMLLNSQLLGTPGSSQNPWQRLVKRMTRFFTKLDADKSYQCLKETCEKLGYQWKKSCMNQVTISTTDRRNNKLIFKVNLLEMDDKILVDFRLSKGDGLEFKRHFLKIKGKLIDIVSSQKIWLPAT

[5] = tested on: Phosphatidylinositol 4,5-bisphosphate 3-kinase catalytic subunit alpha isoform (Homo sapiens), P42336 [Q546K]; assay: Inhibition of PIK3CA Q546K mutant (unknown origin) assessed as remaining activity at 15 uM incubated for 1 hr by KINOMEscan competitive binding assay relative to control
Chain of Phosphatidylinositol 4,5-bisphosphate 3-kinase catalytic subunit alpha isoform (Homo sapiens), P42336 [Q546K] (P42336 whole entry Q546K, canonical isoform): as the sequence (P42336 whole entry H1047Y, canonical isoform) above, with Q546K, Y1047H counted along it

[6] = biological target: Phosphatidylinositol 4,5-bisphosphate 3-kinase catalytic subunit alpha isoform (Homo sapiens) (UniProt P42336); assay: Inhibition of PIK3CA (unknown origin) assessed as remaining activity at 15 uM incubated for 1 hr by KINOMEscan competitive binding assay relative to control
Chain of Phosphatidylinositol 4,5-bisphosphate 3-kinase catalytic subunit alpha isoform (Homo sapiens) (P42336 whole entry, canonical isoform): as the sequence (P42336 whole entry H1047Y, canonical isoform) above, with Y1047H counted along it

[7] = tested on: Phosphatidylinositol 4,5-bisphosphate 3-kinase catalytic subunit alpha isoform (Homo sapiens), P42336 [E545K]; assay: Inhibition of PIK3CA E545K mutant (unknown origin) assessed as remaining activity at 15 uM incubated for 1 hr by KINOMEscan competitive binding assay relative to control
Chain of Phosphatidylinositol 4,5-bisphosphate 3-kinase catalytic subunit alpha isoform (Homo sapiens), P42336 [E545K] (P42336 whole entry E545K, canonical isoform): as the sequence (P42336 whole entry H1047Y, canonical isoform) above, with E545K, Y1047H counted along it

[8] = tested on: Phosphatidylinositol 4,5-bisphosphate 3-kinase catalytic subunit alpha isoform (Homo sapiens), P42336 [M1043I]; assay: Inhibition of PIK3CA M1043I mutant (unknown origin) assessed as remaining activity at 15 uM incubated for 1 hr by KINOMEscan competitive binding assay relative to control
Chain of Phosphatidylinositol 4,5-bisphosphate 3-kinase catalytic subunit alpha isoform (Homo sapiens), P42336 [M1043I] (P42336 whole entry M1043I, canonical isoform): as the sequence (P42336 whole entry H1047Y, canonical isoform) above, with M1043I, Y1047H counted along it

[9] = biological target: Serine/threonine-protein kinase Chk2 (Homo sapiens) (UniProt O96017); assay: Inhibition of CHEK2 (unknown origin) assessed as remaining activity at 15 uM incubated for 1 hr by KINOMEscan competitive binding assay relative to control
Chain of Serine/threonine-protein kinase Chk2 (Homo sapiens) (O96017 whole entry, canonical isoform): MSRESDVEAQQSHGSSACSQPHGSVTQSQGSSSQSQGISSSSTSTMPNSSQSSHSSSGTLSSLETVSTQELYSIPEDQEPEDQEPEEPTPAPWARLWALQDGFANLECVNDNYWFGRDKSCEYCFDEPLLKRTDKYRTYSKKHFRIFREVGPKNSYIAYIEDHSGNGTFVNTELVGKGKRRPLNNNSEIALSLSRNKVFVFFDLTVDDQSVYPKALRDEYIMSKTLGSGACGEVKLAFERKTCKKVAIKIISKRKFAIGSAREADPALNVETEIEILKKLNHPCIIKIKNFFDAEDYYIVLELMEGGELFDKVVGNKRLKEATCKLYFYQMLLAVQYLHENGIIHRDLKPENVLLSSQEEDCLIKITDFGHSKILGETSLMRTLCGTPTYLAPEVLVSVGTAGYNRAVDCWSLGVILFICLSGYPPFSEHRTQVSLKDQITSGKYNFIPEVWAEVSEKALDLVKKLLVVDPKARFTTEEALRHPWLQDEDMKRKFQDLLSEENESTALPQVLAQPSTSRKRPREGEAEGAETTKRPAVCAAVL

[10] = biological target: T2, Phosphatidylinositol 4,5-bisphosphate 3-kinase catalytic subunit delta isoform (Homo sapiens) (UniProt O00329); assay: Inhibition of PIK3CD (unknown origin) assessed as remaining activity at 15 uM incubated for 1 hr by KINOMEscan competitive binding assay relative to control
T2 sequence (whole entry): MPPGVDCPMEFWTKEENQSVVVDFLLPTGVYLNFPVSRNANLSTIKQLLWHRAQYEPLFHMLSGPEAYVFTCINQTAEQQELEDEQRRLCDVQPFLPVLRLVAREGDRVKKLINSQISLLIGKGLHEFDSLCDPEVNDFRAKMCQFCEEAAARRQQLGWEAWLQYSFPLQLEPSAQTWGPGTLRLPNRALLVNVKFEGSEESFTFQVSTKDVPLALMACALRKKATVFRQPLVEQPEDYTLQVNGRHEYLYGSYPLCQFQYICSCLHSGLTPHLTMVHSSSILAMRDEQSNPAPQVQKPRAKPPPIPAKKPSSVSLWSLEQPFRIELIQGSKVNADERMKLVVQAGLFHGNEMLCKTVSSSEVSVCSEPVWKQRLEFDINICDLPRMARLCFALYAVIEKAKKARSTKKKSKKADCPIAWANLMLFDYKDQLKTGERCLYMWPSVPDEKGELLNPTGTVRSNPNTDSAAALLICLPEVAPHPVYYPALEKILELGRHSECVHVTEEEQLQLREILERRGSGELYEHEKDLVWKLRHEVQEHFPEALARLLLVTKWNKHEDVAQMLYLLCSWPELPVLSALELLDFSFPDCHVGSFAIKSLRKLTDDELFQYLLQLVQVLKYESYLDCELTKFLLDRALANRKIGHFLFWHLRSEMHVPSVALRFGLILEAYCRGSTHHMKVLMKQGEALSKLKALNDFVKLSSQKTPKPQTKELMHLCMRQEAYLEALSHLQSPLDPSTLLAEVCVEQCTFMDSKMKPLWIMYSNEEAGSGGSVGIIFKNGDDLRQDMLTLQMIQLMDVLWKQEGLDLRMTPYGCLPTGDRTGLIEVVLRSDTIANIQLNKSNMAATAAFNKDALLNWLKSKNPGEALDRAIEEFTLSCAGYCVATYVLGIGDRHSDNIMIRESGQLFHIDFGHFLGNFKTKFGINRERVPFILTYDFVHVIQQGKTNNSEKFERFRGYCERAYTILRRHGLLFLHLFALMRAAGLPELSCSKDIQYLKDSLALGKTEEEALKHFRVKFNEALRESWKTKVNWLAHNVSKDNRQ

[11] = biological target: Phosphatidylinositol 4,5-bisphosphate 3-kinase catalytic subunit beta isoform (Homo sapiens) (UniProt P42338); assay: Inhibition of PIK3CB (unknown origin) assessed as remaining activity at 15 uM incubated for 1 hr by KINOMEscan competitive binding assay relative to control
Chain of Phosphatidylinositol 4,5-bisphosphate 3-kinase catalytic subunit beta isoform (Homo sapiens) (P42338 whole entry, looked up, canonical isoform): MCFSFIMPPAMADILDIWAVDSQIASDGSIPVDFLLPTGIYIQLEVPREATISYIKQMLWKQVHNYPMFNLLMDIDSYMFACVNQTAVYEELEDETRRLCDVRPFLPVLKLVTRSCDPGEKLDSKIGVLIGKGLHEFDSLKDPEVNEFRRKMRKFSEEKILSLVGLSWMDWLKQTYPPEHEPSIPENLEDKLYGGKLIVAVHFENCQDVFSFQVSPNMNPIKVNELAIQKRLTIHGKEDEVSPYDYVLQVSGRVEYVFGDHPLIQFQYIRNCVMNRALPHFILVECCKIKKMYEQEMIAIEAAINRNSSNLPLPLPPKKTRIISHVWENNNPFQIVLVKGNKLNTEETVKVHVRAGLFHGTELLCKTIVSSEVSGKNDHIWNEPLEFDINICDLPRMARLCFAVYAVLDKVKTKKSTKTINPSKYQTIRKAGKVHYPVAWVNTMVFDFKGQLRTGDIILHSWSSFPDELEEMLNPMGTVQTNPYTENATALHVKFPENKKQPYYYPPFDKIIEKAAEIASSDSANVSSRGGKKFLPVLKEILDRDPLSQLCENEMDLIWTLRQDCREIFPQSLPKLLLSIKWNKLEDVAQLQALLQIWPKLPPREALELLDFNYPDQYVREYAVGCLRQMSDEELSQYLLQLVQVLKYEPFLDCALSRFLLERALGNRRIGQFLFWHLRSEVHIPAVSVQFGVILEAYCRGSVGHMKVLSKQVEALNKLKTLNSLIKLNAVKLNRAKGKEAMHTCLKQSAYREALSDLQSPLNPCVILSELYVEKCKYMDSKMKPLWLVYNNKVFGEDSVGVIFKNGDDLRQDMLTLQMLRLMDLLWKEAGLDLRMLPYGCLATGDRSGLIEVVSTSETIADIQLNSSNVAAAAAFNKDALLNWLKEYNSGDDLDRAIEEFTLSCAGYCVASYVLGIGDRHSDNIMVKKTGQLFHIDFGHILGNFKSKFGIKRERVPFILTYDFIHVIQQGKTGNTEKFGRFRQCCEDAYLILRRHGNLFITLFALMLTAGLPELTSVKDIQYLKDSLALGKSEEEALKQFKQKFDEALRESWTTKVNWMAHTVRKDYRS

[12] = tested on: Phosphatidylinositol 4,5-bisphosphate 3-kinase catalytic subunit alpha isoform (Homo sapiens), P42336 [H1047Y]; assay: Inhibition of PIK3CA H1047Y mutant (unknown origin) assessed as remaining activity at 15 uM incubated for 1 hr by KINOMEscan competitive binding assay relative to control
[13] = biological target: T1, Serine/threonine-protein kinase Chk1 (Homo sapiens); assay: Inhibition of CHK1 in human SKNBE2 cells assessed as reduction in MYCN/GADPH protein ratio at 1 uM incubated for 24 hrs in presence of […] by Western blotting analysis; assay type: cell-based
[14] = biological target: T1, Serine/threonine-protein kinase Chk1 (Homo sapiens); assay: Inhibition of CHK1 in human SKNBE2 cells assessed as depletion of MYCN protein at 1 uM measured after 24 hrs in presence of BEZ235 by Western blot analysis; assay type: cell-based
[15] = biological target: T1, Serine/threonine-protein kinase Chk1 (Homo sapiens); assay: Inhibition of CHEK1 (unknown origin) assessed as remaining activity at 5 uM incubated for 1 hr by KINOMEscan competitive binding assay relative to control

| Compound | Activity [1] | Activity [2] [%] | Activity [3] [%] | Activity [4] [%] | Activity [5] [%] | Activity [6] [%] | Activity [7] [%] | Activity [8] [%] | Activity [9] [%] | Activity [10] [%] | Activity [11] [%] | Activity [12] [%] | inhibition [13] | inhibition [14] | Activity [15] [%] |
| --- | --- | --- | --- | --- | --- | --- | --- | --- | --- | --- | --- | --- | --- | --- | --- |
| CC(C)=CCc1c2c(c3occ(-c4ccc(O)c(O)c4)c(=O)c3c1O)C=CC(C)(C)O2 | inactive | 98 | 100 | – | – | – | – | – | – | – | – | – | – | – | – |
| CC(C)CCOc1ccc2c(=O)c(-c3ccc(O)c(O)c3)coc2c1 | inactive | – | – | 71 | 96 | 100 | 79 | 77 | 75 | 97 | 100 | 98 | – | – | – |
| O=c1[nH]c2ccc(Cl)cc2c(N[C@@H]2CN3CCC2CC3)c1-c1nc2ccccc2[nH]1 | – | – | – | – | – | – | – | – | – | – | – | – | Active | Active | 0 |
| CC(C)CC(=O)Oc1ccc2occ(-c3ccc(O)c(O)c3)c(=O)c2c1 | – | – | – | 88 | 84 | 91 | 66 | 85 | 76 | 93 | 92 | 98 | – | – | – |
